Experimental data as given in patent US8372799B2, “Reverse protein” (Apeptico Forschung und Entwicklung GmbH, priority 2007, dated 2013).

Target: T1, epithelial sodium channels (Homo sapiens, UniProt P37088+P51168+P51170)
T1 construct: endogenous in cells; host or cells: A549 human lung epithelial cells (ATCC CCL-185)
T1 sequence (P37088 1-669): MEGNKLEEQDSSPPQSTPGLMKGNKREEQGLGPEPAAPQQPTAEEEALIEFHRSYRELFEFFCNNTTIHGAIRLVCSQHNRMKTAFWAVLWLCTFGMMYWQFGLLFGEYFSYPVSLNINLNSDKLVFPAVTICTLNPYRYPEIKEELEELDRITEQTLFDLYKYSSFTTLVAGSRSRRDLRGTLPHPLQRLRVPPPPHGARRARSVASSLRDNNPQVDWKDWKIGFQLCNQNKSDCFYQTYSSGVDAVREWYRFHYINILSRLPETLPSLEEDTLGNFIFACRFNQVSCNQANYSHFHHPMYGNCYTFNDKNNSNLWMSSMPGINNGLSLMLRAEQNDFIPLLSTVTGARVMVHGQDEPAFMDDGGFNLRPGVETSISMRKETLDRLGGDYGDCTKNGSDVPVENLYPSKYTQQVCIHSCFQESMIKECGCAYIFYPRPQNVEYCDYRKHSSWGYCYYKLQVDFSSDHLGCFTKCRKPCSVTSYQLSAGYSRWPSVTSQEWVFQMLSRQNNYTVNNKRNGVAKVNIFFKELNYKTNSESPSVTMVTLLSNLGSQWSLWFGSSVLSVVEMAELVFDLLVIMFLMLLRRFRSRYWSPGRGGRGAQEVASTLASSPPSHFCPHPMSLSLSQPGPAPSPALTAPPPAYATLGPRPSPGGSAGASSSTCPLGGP
T1 sequence (P51168 1-640): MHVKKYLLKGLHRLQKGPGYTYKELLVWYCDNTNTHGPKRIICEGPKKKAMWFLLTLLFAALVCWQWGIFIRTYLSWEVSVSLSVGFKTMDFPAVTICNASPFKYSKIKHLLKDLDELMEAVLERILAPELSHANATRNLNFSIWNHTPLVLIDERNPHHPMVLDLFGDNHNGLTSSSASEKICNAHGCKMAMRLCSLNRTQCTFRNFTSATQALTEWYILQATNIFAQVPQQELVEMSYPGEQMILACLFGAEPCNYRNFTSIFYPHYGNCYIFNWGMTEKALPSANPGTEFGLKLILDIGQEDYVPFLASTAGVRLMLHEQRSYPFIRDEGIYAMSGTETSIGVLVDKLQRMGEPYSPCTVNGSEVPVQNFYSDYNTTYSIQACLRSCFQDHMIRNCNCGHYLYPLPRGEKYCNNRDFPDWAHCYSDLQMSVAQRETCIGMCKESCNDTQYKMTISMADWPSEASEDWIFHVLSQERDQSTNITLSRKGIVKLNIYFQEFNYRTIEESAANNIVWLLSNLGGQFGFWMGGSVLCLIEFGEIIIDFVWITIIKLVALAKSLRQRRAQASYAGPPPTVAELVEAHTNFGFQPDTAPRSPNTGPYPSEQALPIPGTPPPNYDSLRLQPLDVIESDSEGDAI
T1 sequence (P51170 1-649): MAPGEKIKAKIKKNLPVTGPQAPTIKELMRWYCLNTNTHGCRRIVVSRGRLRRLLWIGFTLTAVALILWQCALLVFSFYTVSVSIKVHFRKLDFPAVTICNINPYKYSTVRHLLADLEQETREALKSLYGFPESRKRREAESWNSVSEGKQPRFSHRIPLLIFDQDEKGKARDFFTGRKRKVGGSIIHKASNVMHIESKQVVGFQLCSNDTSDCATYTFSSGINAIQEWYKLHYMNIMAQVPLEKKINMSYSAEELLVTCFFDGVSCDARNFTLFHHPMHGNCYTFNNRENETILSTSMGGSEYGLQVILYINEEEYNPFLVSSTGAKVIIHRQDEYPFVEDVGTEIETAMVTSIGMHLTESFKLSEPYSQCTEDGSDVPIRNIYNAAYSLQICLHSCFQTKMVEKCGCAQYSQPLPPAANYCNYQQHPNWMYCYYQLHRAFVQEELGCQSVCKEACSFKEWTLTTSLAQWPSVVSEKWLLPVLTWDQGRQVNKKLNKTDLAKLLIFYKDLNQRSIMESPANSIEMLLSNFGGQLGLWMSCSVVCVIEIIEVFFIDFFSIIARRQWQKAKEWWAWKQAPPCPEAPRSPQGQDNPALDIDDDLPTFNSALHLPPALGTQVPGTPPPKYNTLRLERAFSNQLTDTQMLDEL
Assay: Patch-clamp activation of sodium ion channels in A549 cells
Format: cell-based
Conditions: 10 μM amiloride
Source text: Furthermore, a method common in laboratories is to detect the activation of ion channels by means of patch-clamp experiments, and this is described, for example, in Clunes M. T. et al, J Physiol Volume 557, No. 3, 809-819 (Jun. 15, 2004). For patch-clamp examinations of ion channels, a glass cannula is stretched thin and filled with a neutral buffer solution. The glass cannula (patch-clamp pipette) is carefully pressed onto an intact epithelial cell. A piece of membrane is located below the pipette. An electrical resistance is thereby produced between the interior of the pipette and the external solution. An electrode attached to a sensitive amplifier dips into the pipette solution.
The electrophysiological experiments were performed on human A549 cells (ATTC No. CCL-185). A549 cells are human lung epithelial cells which are involved in the diffusion of water and electrolytes in the lungs.
The cells were suspended in DMEM-F-12 medium with 1% penicillin-streptomycin and 10% fetal calf serum, transferred into plastic cell culture vessels and cultivated in the incubator with 95% air and 5% CO2 at 37° C. The medium was changed 2 to 3 times per week. The cells double within approx. 22 hours and a cell concentration of more than 7×10^4 cells per cm^2 was not exceeded.
Macroscopic currents and single-channel currents were discharged from A549 cells in the “whole cell” and “cell-attached” configuration of the “patch-clamp” technique (Hamill et al, Pflugers Arch. 1981, 391(2):85-100, 1981). For the current dissipations in the “whole cell” configuration, the following bath and electrode solutions were used:
Bath solution: 135 mM sodium methane sulfonate, 10 mM NaCl, 2.7 mM KCl, 1.8 mM CaCl2, 2 mM MgCl2, 5.5 mM glucose, and 10 mM HEPES, pH 7.4. […]
The cover slips with the cells cultivated thereon were transferred into a test bath with a capacity of 1 ml, fixed on the microscope table (Axiovert 100, 400-fold magnification), and the cells were superfused with the above-described bath solution. […] In the “cell-attached” configuration, the current can be measured through individual ion channels beneath the electrode tip. In the “whole cell” configuration, the membrane was penetrated beneath the electrode tip so that the current flowing through all ion channels of the cell could be measured. […] Upon obtaining a Gigaohm seal, a defined membrane retaining potential was applied via a pre-amplifier (CV-4 Headstage, Axon Instruments) and an amplifier (Axopatch 1D, Axon Instr.) and the current thereby flowing through the ion channels was measured.
The pulse protocol consisted of a hyperpolarization to −100 mV for 1 s at an interval of 5 s. […] The current dissipations thus obtained were stored and analyzed by means of the program PCLAMP 6.0. […]

SMILES: N=C(N)NC(=O)c1nc(Cl)c(N)nc1N [amiloride, reference compound]
- inhibition of ion channels (patch clamp): inhibition of ion channels
